The values that follow come from publication PMC6344228 (Cell Chemical Biology, 2019).

The test system of assay [1] is CDK1-cyclin B. The conditions noted are these: read-out: IC50 Published measurements CDK1B; scintillation proximity assay; ref Whittaker et al., 2017; Byth et al., 2009; cited from earlier work. On the technique in general: Scintillation proximity formats need no separation of bound from free tracer.
The target of assay [2] is T1, monomeric CDK1 (Homo sapiens, UniProt P06493).
T1 construct: Full-length human CDK1 was expressed in insect cells either untagged (from pVL1393) or as a 3C-protease cleavable GST fusion; GST (N, cleaved yes); made in house; host or cells: insect cells (Sf9 baculovirus)
T1 sequence (P06493 whole entry, the tested form may be a part): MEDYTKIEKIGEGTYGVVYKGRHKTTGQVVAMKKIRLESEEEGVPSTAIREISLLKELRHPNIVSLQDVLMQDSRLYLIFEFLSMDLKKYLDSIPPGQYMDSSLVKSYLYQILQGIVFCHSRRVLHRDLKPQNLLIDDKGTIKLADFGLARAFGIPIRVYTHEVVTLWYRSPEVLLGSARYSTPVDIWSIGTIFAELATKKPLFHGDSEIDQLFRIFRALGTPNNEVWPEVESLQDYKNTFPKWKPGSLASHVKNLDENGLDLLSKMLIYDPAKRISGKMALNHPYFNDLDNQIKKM
Description: Differential scanning fluorimetry (DSF), CDK1. In kind it is binding. The following applies: read-out: ΔTm CDK1. As to the method: (§1) The stability of the CDK1 and CDK2 inhibitor complexes were assessed by differential scanning fluorimetry (DSF) using a ViiA7 Real-Time PCR system (Applied Biosystems). Purified CDK1 (4 μM) and CDK2 (6 uM) in their respective gel filtration buffers were assayed in the presence of 10 μM inhibitor in 8% DMSO, in triplicate, in a 384-well plate. […] The resulting data was plotted and the inflection point (Tm) calculated using the Boltzmann equation in Applied Biosystems software.
In general terms: In DSF a fluorescence change marks the thermal transition of the protein.

Assay [3] relates to CDK1-cyclin B. The following applies: radiolabelled γ33P-ATP kinase assay, read-out: IC50 Published measurements CDK1B, cited from earlier work.
Assay [4] deals with T2, monomeric CDK2 (Homo sapiens, UniProt P24941).
T2 construct: Human CDK2 (encompassing full length residues 1-298); GST (N, cleaved yes); made in house; host or cells: E. coli
Description: biochemical. In kind it is binding. The following applies: DSF; phosphorylated monomeric CDK2; 10 μM inhibitor. As to the method:
as §1

The target in assay [5] is T3, CDK2-cyclin A (Homo sapiens, UniProt P24941). Description: biochemical. In kind it is binding. Also on record: Human CDK2 (encompassing full length residues 1-298); GST (N, cleaved yes); made in house; host or cells: E. coli (CDK2 and cyclin A2). The following applies: phosphorylated CDK2-cyclin A complex; 30°C; n = 2, ± SD; read-out: ITC Kd CDK2A. As to the method:
(§2) Individual protein samples were exchanged into ITC buffer (40 mM HEPES, 500 mM NaCl, 0.25 mM TCEP, pH 8.0) at 4°C using a Hitrap desalting column (GE Healthcare Life Sciences, Chicago, IL, USA) (i.e. CDK1 and cyclin B were not combined to form a complex prior to buffer exchange). Protein concentration was then determined at A280 nm using a Nanodrop 2000 (Thermoscientific, Waltham, MA, USA) and sequence derived extinction coefficients (http://web.expasy.org/protparam/). Proteins and compounds were degassed at 30°C directly before analysis. Compounds at 100 μM prepared in ITC buffer (40 mM HEPES, 500 mM NaCl, 0.25 mM TCEP, pH 8.0) and to a final DMSO concentration of 1% were titrated into 200 μL protein solutions prepared at 10 μM, 1% DMSO in the cell. All experiments used phosphorylated forms of CDK1 and CDK2 (on T161 or T160 respectively). For experiments carried out in the absence of cyclin, proteins were prepared on ice to a final concentration of 10 μM in ITC buffer and supplemented with 1% DMSO.

Assay [6] has as its target T4, CDK1-cyclin B (Homo sapiens, UniProt P06493).
T4 construct: Full-length human CDK1 was expressed in insect cells either untagged (from pVL1393) or as a 3C-protease cleavable GST fusion; GST (N, cleaved yes); made in house; host or cells: CDK1: insect cells (Sf9 baculovirus); cyclin B1: E. coli
Description: biochemical. The following applies: ADP-Glo, 20 μM ATP, 20 μM peptide, 4 nM CDK1-cyclin B. As to the method:
(§3) Briefly, the 5 inhibitors in the study were titrated against phosphorylated CDK2–cyclin A and CDK1–cyclin B, with reaction initiated through addition of ATP and substrate peptide HHASPRK (Enzo Scientific). ATP to ADP conversion was assessed using the ADP-Glo assay (Promega) essentially as described by the manufacturers. […] Reactions were initiated by the addition of 20 μM ATP and 20 μM peptide. All activity assays were performed in triplicate in white low volume 384-well plates using a PheraStar plate reader (BMG).
(ADP-Glo turns the ADP formed in a reaction into a luminescent signal.)

The target in assay [7] is T3, CDK2-cyclin A. As to the kind of experiment: biochemical. Also on record: Human CDK2 (encompassing full length residues 1-298); GST (N, cleaved yes); made in house; host or cells: E. coli. The following applies: ADP-Glo, 20 μM ATP, 20 μM peptide, 1.5 nM CDK2-cyclin A. As to the method:
as §3

In assay [8] the target is T4, CDK1-cyclin B. As to the kind of experiment: biochemical. In kind it is binding. The following applies: phosphorylated CDK1-cyclin B complex; 30°C; n = 2, ± SD; read-out: ITC Kd CDK1B. As to the method: as §2
Assay [9] addresses T5, phosphorylated monomeric CDK1 (Homo sapiens, UniProt P06493).
T5 construct: Full-length human CDK1 was expressed in insect cells either untagged (from pVL1393) or as a 3C-protease cleavable GST fusion; GST (N, cleaved yes); made in house; host or cells: insect cells (Sf9 baculovirus)
Description: biochemical. The following applies: phosphorylated monomeric (cyclin-free) CDK1; 30°C; n = 2, ± SD; read-out: ITC Kd CDK1. In kind it is binding. As to the method:
as §2

Assay [10] concerns the target T6, phosphorylated monomeric CDK2 (Homo sapiens, UniProt P24941).
T6 construct: Human CDK2 (encompassing full length residues 1-298); GST (N, cleaved yes); made in house; host or cells: E. coli
As to the kind of experiment: biochemical. The following applies: phosphorylated monomeric (cyclin-free) CDK2; 30°C; n = 2, ± SD; read-out: ITC Kd CDK2. In kind it is binding. As to the method: as §2

The target of assay [11] is T7, GST-tagged unphosphorylated CDK2 (Homo sapiens, UniProt P24941).
T7 construct: Human CDK2 (encompassing full length residues 1-298); made in house; host or cells: E. coli BL21(DE3)STAR
As to the kind of experiment: biochemical. In kind it is binding. The following applies: unphosphorylated monomeric GST-CDK2; 20°C; duplicate, ± SD; read-out: SPR Kd CDK2. As to the method: (§4) SPR ligand interactions assays were performed on a Biacore S200 (GE Healthcare Life Sciences) at 20°C using multi-cycle settings. GST-tagged unphosphorylated CDK1 and CDK2 were immobilised onto the surface of a CM5 chip pre-immobilised with anti-GST antibody, provided as part of the GST-capture kit (GE Healthcare Life Sciences, catalogue number BR100223) following the GST immobilisation kit instructions. As a control, recombinant GST was immobilised onto the designated control flow cell. […] Preceding injection of each compound, three cycles of buffer injections were carried out over all surfaces (30 μL/min for 60 s with 360 s dissociation). Compounds were then injected over all surfaces (from low to high concentration) for 60 s at 30 μL/min before being allowed to dissociate for 360 s to record dose-responses. […] The experiment was conducted in SPR running buffer (20 mM HEPES, 150 mM NaCl, 0.01% Tween-20®, 1% DMSO, pH 7.4) and used an 8-point DMSO solvent correction (preparation of DMSO in DMSO-free SPR buffer to final concentrations of: 0.2%, 0.4%, 0.6%, 0.8% 1%, 1.2%, 1.4%, 1.6%) to account for any bulk flow interactions.

Assay [12] deals with T8, GST-tagged unphosphorylated CDK1 (Homo sapiens, UniProt P06493).
T8 construct: Full-length human CDK1 was expressed in insect cells either untagged (from pVL1393) or as a 3C-protease cleavable GST fusion; made in house; host or cells: insect cells (Sf9 baculovirus)
T8 sequence (P06493 whole entry, the tested form may be a part): as above
Description: biochemical. In kind it is binding. The following applies: unphosphorylated monomeric GST-CDK1; 20°C; duplicate, ± SD; read-out: SPR Kd CDK1. As to the method:
as §4

For assay [13], the system named is CDK2-cyclin A. The conditions noted are these: radiolabelled γ33P-ATP kinase assay; ref Lane et al., 2001; read-out: IC50 Published measurements CDK2A; cited from earlier work.
The mark [14] stands for this setting: DSF, phosphorylated monomeric CDK1, 10 μM inhibitor.

“And” between values parts separate entries of the source, which are not always exact repeats. Equal values may be shown once. Read-outs that look alike come from different tables or passages of the source.

T4 sequence (P06493 whole entry, the tested form may be a part): as above
T4 sequence (P14635 with tags, fused parts or gaps C167S/C238S/C350S partner limits assumed): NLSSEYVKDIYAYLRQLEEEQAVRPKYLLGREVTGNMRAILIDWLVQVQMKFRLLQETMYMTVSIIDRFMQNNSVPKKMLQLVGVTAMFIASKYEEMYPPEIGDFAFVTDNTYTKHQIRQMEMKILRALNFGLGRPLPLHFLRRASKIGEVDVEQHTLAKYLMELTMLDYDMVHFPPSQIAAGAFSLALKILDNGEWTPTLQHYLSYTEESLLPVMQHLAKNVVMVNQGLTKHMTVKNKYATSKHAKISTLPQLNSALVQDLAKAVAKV
T5 sequence (P06493 whole entry, the tested form may be a part): as the sequence (P06493 whole entry, the tested form may be a part) above

For `Cc1ncc(-c2ccnc(Nc3ccc(S(C)(=O)=O)cc3)n2)n1C(C)C` [AZD5438], the IC50 in assay [1] is 16 nM. For the same compound, in assay [2] (setting [14]), the ΔTm at 10 µM was -2.6 °C.
As for `CN1CC[C@H](c2c(O)cc(O)c3c(=O)cc(-c4ccccc4Cl)oc23)[C@H](O)C1` [Alvocidib], the IC50 in assay [3] (ref Whittaker et al., 2017, Asghar et al., 2015, Byth et al., 2009, Mariaule and Belmont, 2014, Kim et al., 2000) was […]. Further, the ΔTm at 10 µM came to 0.9 °C in [2] (setting [14]) and 7.3 °C in [4].
For the compound `CCn1cnc2c(Nc3cccc(Cl)c3)nc(NC3CCCCC3N)nc21` (stereo not shown) [CGP74514A], the Kd in assay [5] was 224 ± 14 nM; in assay [8], 950 ± 50 nM; in assay [9], greater than 20000 nM; in [10] it was 715 ± 15 nM; in assay [11], 312 ± 52 nM; in assay [12], 13500 nM. Besides, the IC50 in assay [3] (ref Imbach et al., 1999) was 25 nM; in [6] (read-out: IC50 Lab measurements CDK1B), 833 nM; in assay [7] (read-out: IC50 Lab measurements CDK2A) it was 33 nM. The Ki in assay [6] (read-out: Ki (in parenthesis) Lab measurements CDK1B) was determined as 463 nM; in assay [7] (read-out: Ki (in parenthesis) Lab measurements CDK2A), 18.3 nM. Besides, the values for the ΔTm at 10 µM in [2] and in assay [4] were -3.3 °C and 5.2 °C, respectively.
As to `COc1ccc2c(c1)/C(=C/c1cnc[nH]1)C(=O)N2` [SU9516], the IC50 in assay [13] is […].

Usually IC50 stands for the point on the concentration scale where inhibition reaches its midpoint. As a reminder, the ΔTm is the change in melting temperature against a reference sample. The Kd is the free concentration of one partner at which half of the binding sites on the other are occupied at equilibrium, for simple one-to-one binding. The Ki is a dissociation constant, usually derived from enzyme kinetics or from competition with a known ligand.
